# According to paper PMC12503911, “Cytotoxicity of Atropisomeric [1,1′‐Binaphthalene]‐2,2′‐Diamines (BINAM) and Analogs in Human Cancer Cells: Enantioselectivity, Structure–Activity Relationships, and Mechanism” (Chemmedchem, 2025):
# Like-named read-outs stand apart in the source and are kept apart here.
# Assays:
# Experiment in all cases: biochemical
# Parameters in all cases: 33PanQinase radiometric kinase activity assay, residual activity in % of control, contract lab Reaction Biology
# Conditions in all cases: mean of intraexperimental duplicates, n = 1
# [1] = molecular target: WEE1 (Homo sapiens, UniProt P30291)
# WEE1, sequence (P30291 whole entry): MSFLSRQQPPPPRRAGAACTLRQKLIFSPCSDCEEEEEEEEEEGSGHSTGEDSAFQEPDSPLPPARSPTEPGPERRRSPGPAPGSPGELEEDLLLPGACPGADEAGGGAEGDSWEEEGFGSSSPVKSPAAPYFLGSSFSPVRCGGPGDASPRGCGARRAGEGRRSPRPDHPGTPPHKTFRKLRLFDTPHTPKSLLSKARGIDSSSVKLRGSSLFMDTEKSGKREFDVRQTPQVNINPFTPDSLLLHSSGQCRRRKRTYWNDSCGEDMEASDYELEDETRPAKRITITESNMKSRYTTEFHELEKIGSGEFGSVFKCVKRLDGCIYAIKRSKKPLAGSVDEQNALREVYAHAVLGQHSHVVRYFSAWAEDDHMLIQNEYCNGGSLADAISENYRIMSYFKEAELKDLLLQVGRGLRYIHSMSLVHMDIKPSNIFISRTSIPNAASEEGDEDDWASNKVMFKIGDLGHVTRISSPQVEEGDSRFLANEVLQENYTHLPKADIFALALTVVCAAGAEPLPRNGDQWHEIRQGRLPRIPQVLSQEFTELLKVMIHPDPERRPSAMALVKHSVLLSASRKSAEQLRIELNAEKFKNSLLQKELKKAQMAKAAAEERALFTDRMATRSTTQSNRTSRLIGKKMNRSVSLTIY
# Description: (§1) Kinase Screening was performed at Reaction Biology (Freiburg, Germany) by using the ^33PanQinase Assay.^[ [90] ^] Based on this knowledge, we commissioned a kinase screening by the firm Reaction Biology, targeting those kinases whose inhibition has shown an indirect effect on microtubules. In our selection, we included additional kinases that are known to be involved in centrosome amplification (PLK4^[ [82] ^]), centrosome clustering (CDK1/2,^[ [83] ^] PLK1^[ [84] ^]), spindle multipolarity (SRC^[ [85] ^]), microtubule dynamics (AKT1^[ [86] ^]), and LIMK1/2 activation (ROCK1^[ [87] ^]) or are crucial for the mitosis (BUB1B, NEK2/9, WEE1^[ [88] ^]). Nonetheless, 1(R) and 1(S) at 10 µM had almost no inhibitory effects on any of the chosen kinases (Table 4 ). Only Aurora A (mean residual activity for 1(R): 86%, 1(S): 98%) and ASK1 (mean residual activity for 1(R): 90%, 1(S): 117%) were slightly enantioselectively impacted. However, we theorize that those marginal inhibitions are not explanatory for the antiproliferative and morphological effects of 1(R) on cancer cells.
# [2] = molecular target: CDK1/CycB1 (Homo sapiens, UniProt P06493)
# CDK1/CycB1, sequence (P06493 whole entry): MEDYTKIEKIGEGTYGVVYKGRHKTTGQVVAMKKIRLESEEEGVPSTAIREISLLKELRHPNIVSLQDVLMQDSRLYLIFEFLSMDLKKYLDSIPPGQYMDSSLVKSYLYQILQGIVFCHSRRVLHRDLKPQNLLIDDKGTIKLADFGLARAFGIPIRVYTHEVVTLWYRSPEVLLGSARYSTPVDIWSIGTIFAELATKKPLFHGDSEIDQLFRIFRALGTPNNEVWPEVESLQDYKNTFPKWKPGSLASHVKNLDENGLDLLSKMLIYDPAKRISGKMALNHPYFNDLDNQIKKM
# CDK1/CycB1, sequence (P14635 whole entry partner): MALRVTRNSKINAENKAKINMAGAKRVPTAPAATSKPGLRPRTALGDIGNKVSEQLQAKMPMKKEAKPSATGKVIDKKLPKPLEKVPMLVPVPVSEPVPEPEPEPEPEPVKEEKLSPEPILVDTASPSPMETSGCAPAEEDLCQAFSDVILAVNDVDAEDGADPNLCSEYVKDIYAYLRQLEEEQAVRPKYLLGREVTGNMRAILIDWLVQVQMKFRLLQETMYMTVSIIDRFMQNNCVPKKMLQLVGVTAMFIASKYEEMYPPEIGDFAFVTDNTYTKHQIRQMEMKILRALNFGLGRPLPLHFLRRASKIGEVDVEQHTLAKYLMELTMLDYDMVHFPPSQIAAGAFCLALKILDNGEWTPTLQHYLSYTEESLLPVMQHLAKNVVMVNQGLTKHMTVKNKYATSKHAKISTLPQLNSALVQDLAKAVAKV
# Description: as §1
# [3] = molecular target: T1, NEK9 (Homo sapiens, UniProt Q8TD19)
# T1 sequence (Q8TD19 1-979): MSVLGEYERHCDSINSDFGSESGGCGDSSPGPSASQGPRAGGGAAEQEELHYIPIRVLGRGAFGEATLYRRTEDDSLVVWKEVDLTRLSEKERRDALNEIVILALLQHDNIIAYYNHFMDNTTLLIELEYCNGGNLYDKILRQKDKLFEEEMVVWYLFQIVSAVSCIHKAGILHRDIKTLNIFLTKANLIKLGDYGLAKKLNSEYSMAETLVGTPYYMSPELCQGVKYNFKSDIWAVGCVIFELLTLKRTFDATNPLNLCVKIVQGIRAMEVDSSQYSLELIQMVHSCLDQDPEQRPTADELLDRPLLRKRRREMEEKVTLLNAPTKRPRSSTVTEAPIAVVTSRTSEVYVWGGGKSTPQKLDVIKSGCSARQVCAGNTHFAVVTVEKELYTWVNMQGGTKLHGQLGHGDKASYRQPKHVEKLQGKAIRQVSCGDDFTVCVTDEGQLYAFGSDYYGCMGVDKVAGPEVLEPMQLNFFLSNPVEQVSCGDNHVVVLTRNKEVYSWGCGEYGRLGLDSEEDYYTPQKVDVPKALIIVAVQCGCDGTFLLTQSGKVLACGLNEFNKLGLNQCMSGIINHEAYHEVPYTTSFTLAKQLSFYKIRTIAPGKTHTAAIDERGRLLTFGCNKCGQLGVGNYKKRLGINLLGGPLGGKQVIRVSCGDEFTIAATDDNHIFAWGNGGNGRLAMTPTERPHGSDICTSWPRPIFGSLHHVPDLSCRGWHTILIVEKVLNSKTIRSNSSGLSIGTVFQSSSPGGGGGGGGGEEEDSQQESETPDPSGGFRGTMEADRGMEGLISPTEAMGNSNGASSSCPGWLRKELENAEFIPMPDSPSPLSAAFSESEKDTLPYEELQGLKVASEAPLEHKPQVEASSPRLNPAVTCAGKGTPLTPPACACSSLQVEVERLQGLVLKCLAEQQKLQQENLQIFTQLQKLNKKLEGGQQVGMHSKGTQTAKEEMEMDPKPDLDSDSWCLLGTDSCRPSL
# Description: as §1
# [4] = molecular target: T2, NEK2 (Homo sapiens, UniProt P51955)
# T2 sequence (P51955 1-445): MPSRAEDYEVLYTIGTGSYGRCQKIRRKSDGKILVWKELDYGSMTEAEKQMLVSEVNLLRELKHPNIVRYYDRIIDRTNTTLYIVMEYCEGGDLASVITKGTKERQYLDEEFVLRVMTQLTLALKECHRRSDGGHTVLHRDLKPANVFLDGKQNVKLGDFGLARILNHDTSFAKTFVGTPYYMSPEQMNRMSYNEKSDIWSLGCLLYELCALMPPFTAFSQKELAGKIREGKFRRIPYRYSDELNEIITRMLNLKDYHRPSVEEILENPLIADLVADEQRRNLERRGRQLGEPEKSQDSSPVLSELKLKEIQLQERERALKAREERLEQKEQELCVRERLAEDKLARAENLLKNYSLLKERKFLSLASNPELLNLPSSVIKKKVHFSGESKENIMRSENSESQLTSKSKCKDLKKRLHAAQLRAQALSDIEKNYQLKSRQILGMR
# Description: as §1
# [5] = molecular target: BUB1B (Homo sapiens, UniProt O60566)
# BUB1B, sequence (O60566 whole entry): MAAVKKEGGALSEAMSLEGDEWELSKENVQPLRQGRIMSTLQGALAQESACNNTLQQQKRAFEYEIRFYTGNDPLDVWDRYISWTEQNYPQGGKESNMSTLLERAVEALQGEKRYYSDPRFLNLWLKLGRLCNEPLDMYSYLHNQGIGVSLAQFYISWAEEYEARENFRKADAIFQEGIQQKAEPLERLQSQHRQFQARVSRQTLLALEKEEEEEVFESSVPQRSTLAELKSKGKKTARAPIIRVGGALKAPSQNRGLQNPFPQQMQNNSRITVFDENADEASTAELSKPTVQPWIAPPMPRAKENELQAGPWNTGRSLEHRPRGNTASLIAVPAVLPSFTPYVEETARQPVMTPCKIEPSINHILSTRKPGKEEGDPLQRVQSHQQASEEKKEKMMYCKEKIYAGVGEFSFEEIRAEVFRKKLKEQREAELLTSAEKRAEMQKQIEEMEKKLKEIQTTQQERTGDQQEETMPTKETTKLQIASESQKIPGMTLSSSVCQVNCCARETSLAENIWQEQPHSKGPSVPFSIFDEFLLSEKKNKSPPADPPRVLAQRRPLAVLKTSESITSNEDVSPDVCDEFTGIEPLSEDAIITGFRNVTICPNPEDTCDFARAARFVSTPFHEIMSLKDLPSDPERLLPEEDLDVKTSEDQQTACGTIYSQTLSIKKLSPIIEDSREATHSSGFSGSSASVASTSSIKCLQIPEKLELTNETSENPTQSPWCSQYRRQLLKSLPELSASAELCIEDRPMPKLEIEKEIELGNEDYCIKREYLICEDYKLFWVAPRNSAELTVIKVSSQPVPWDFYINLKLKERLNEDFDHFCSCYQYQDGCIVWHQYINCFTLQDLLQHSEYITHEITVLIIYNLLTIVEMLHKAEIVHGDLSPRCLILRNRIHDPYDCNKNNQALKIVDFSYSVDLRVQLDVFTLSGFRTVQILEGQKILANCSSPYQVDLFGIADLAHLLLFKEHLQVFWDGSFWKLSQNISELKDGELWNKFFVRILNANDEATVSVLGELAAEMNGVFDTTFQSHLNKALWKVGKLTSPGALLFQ
# Description: as §1
# [6] = read-out: Residual activities [% of control] / 1(R) 10 µM
# [7] = read-out: Residual activities [% of control] / 1(S) 10 µM
"remaining activity at 10 µM [1, 6] [%]","remaining activity at 10 µM [2, 6] [%]","remaining activity at 10 µM [4, 6] [%]","remaining activity at 10 µM [5, 6] [%]","remaining activity at 10 µM [1, 7] [%]","remaining activity at 10 µM [2, 7] [%]","remaining activity at 10 µM [4, 7] [%]","remaining activity at 10 µM [5, 7] [%]",SMILES,"remaining activity at 10 µM [3, 6] [%]","remaining activity at 10 µM [3, 7] [%]"
99,101,106,118,–,–,–,–,"Nc1ccc2ccccc2c1-c1c(N)ccc2ccccc12 [1(R), (R)‐[1,1′‐binaphthalene]‐2,2′‐diamine]",94,–
–,–,–,–,98,100,96,111,"Nc1ccc2ccccc2c1-c1c(N)ccc2ccccc12 [1(S), S‐BINAM]",–,96
